From US11879021B2, “Cyclic peptides and uses thereof” (UNIVERSITÉ DE MONTRÉAL, priority 2016, dated 2024)

System: mice exposed to intense blue light
Type: in vivo
Settings: 289 nmol/kg daily s.c. for 7 days
Text: The acute model of light-induced retinal degeneration uses short exposure to blue light to induce photoreceptor cell death leading to loss of vision (Grimm and Remé, Methods Mol Biol. 2013; 935: 87-97). Mice were exposed mice to intense blue light (wavelength=425 nm; exposure intensity=6000 lux) for five (5) successive days. The treatment was started one day after start of blue-light exposure (D1), for seven (7) successive days of daily subcutaneous (s.c) administration at 289 nmol/kg of test item solutions (MPE-001 and MPE-298). On Day 7, mice were dark adapted for electroretinography (ERG) analysis. […]
ERGs were recorded from wildtype and age matched knockout mice on Espion® ERG Diagnosys machine and a ColorDome® Ganzfeld stimulator (Diagnosys LLC, Lowell, MA). […]
Flash ERG were measured using corneal DTL Plus electrodes (Diagnosys® LLC). […] Scotopic responses were simultaneously recorded from both eyes of the dark-adapted animals at the following increasing light intensities: 0.5, 1.0, 3.0 and 10.0 cd-s/m^2. […] The amplitude and latency of major ERG components were measured with the Espion® software (Diagnosys® LLC). […] The ERG a-wave amplitudes were measured from the baseline to the primary negative peak and the b-wave was measured from the trough of the a-wave to the maximum of the […] positive peak. […]

For `C=CCN1CC#CCN(NC(=O)[C@H](C)N)C(=O)N[C@H](Cc2c[nH]c3ccccc23)C(=O)N[C@@H](C)C(=O)N[C@@H](Cc2c[nH]c3ccccc23)C(=O)N[C@H](Cc2ccccc2)C(=O)N[C@H](C(N)=O)CCCC1` [MPE-298], the “subretinal inflammation (immune cell infiltration, notably IL-1β-expressing immune cells, in the retina)” value (F4/80-positive cells in RPE flatmounts) was “reduce” and the “outer nuclear layer (ONL) thickness” value (mice exposed to blue light 6000 lux) was “preserved”.
